According to ChEMBL document CHEMBL5029191, “The Inhibitors of Protein Tyrosine Phosphatase Nonreceptor Type 2 (PTPN2) as Potential Enhancers of Cancer Immunotherapy and Type 1 (PTPN1) as Treatment of Metabolic Diseases” (ACS Med Chem Lett, 2022):

Columns and labels:
[1] = target: T1, Tyrosine-protein phosphatase non-receptor type 2 (Homo sapiens, UniProt P17706); assay: Inhibition of PTPN2 (unknown origin) by Mobility shift assay
T1 sequence (P17706 whole entry): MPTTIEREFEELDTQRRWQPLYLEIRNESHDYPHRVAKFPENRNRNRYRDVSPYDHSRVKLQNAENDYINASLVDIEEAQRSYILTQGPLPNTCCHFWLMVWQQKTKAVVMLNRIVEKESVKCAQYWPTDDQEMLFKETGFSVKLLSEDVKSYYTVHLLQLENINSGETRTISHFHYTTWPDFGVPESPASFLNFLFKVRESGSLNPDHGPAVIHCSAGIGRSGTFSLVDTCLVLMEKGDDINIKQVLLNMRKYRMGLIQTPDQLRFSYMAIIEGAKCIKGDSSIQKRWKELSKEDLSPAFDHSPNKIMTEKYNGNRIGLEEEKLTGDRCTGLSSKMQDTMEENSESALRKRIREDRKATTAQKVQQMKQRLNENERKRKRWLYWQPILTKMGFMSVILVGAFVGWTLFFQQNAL

[2] = target: T2, Tyrosine-protein phosphatase non-receptor type 1 (Homo sapiens, UniProt P18031); assay: Inhibition of PTPN1 (unknown origin) by Mobility shift assay
T2 sequence (P18031 whole entry): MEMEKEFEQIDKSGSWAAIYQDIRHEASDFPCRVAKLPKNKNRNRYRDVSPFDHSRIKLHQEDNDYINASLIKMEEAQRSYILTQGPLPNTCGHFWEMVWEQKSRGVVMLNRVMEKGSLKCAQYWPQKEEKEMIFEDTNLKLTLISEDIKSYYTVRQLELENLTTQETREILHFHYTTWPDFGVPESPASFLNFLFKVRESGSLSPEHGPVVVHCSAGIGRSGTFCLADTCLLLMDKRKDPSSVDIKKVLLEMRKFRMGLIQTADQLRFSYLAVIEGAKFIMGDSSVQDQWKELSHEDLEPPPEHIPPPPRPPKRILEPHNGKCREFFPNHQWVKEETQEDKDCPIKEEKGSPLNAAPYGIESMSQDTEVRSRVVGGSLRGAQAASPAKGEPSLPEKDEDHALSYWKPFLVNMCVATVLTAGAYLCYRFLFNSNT

B16-F10 [3] = assay: Growth inhibition of […]-induced mouse B16-F10 cells at 33 uM relative to control; format: functional; conditions: read-out: GI
B16-F10 [4] = assay: Growth inhibition of mouse B16-F10 cells at 33 uM relative to control; format: functional; conditions: read-out: GI

IC50 [1] | IC50 [2] | SMILES | inhibition of growth at 33 µM (B16-F10 [3]) | inhibition of growth at 33 µM (B16-F10 [4])
< 1 nM | > 100 nM | O=C1CN(c2c(O)cc3ccc(OCC4CCCOC4)cc3c2F)S(=O)(=O)N1 (centres undefined) | 60% | < 25%
< 1 nM | < 1 nM | CC(C)(C#N)CCOc1ccc2cc(O)c(N3CC(=O)NS3(=O)=O)c(F)c2c1 | 60% | < 25%
< 1 nM | 1 nM | C[C@H](O)CCOc1ccc2cc(O)c(N3CC(=O)NS3(=O)=O)c(F)c2c1 | > 90% | < 25%
1 nM | > 100 nM | O=C1CN(c2c(O)cc3ccc(NCCN4CCC4)cc3c2F)S(=O)(=O)N1 | > 90% | < 25%
> 10 nM | > 100 nM | CC(C)(O)CCOc1ccc2c(F)c(N3CC(=O)NS3(=O)=O)c(O)cc2c1 |  | 
1 nM | 1 nM | O=C1CN(c2c(O)cc3ccc(NCCC4CC4)cc3c2F)S(=O)(=O)N1 | > 90% | < 25%
< 1 nM | < 1 nM | O=C1CN(c2c(O)cc3ccc(OCCC4CC4(F)F)cc3c2F)S(=O)(=O)N1 (centres undefined) | 60% | < 25%
< 1 nM | < 1 nM | O=C1CN(c2c(O)cc3ccc(-c4cnn(CC5CC5)c4)cc3c2F)S(=O)(=O)N1 | 60% | < 25%
< 1 nM | < 1 nM | CC(C)(C#N)CCOc1cc2c(F)c(N3CC(=O)NS3(=O)=O)c(O)cc2cc1O |  | 
< 1 nM | 1 nM | O=C1CN(c2c(O)cc3ccc(C4CCN(S(=O)(=O)C5CC5)C4)cc3c2F)S(=O)(=O)N1 (centres undefined) | 60% | < 25%
< 1 nM | < 1 nM | CCS(=O)(=O)N1CC=C(c2ccc3cc(O)c(N4CC(=O)NS4(=O)=O)c(F)c3c2)C1 | > 90% | < 25%
< 1 nM | < 1 nM | CC(C)CCS(=O)(=O)N1CC=C(c2ccc3cc(O)c(N4CC(=O)NS4(=O)=O)c(F)c3c2)C1 | 60% | < 25%
